Experimental data published in patent publication US8530475B2, “Bridged aryl piperazines derivatives useful for the treatment of CNS, GI-urinary and reproductive disorders” (Janssen Pharmaceutica NV, priority 2006, dated 2013).
Values joined by “and” are separate entries in the source; they are usually repeats but may differ in a detail not shown here. Equal entries are not always repeated. Where two headings read alike, the source gives them in different places.

Columns and labels:
human 5HT1A receptor [1] = biological target: T1, human 5HT1A receptor (Homo sapiens, UniProt P08908); assay: [35S]GTPγS binding for 5-HT1A receptor inhibition (antagonist mode); type: biochemical; conditions: Example 78, HEK293 membranes, antagonist mode with serotonin 100 nM, <5 = not active at up to 10 μM; for IC50: read-out: h5HT1A Antagonist pIC50 (converted)
T1 construct: purchased Perkin Elmer; host or cells: HEK293 cells, stably transfected (membranes)
T1 sequence (P08908 1-422): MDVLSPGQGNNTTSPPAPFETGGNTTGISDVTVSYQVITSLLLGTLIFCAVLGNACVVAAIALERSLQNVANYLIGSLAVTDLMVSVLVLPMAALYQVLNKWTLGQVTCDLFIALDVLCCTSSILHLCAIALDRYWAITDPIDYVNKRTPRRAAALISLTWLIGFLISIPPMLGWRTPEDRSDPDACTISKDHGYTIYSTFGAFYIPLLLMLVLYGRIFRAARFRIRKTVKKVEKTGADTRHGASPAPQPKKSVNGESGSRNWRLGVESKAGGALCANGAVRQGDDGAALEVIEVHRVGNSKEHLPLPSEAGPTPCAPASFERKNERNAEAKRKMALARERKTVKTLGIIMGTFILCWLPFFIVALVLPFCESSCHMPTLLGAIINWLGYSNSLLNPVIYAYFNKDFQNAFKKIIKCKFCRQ
Protocol: Compounds showing affinity at the 5-HT1A receptor were tested for functional agonism and antagonism in a [^35S]GTPγS (guanine triphosphate (non-hydrolysable, labelled with ^35S) binding assay on membranes of HEK293 cells permanently transfected with human 5HT1A receptor (Perkin Elmer, USA).
Frozen membranes were thawed, briefly homogenized and were diluted in incubation buffer, 100 mM NaCl, 0.3 mM MgCl2 and 10 μM guanine diphosphate (GDP), pH 7.4-7.5) supplemented with 10 μg/ml saponin. Assay mixtures contained 10 μg of membrane protein and test compound, buffer, or control agonist (serotonin, 10 μM). For the antagonistic assay, control agonist was present in all wells containing compound at a sub-maximal concentration (serotonin, 100 nM). After 20 minutes pre-incubation at 37° C., [^35S]GTPγS was added to a final concentration of 0.25 nM, briefly shaken and further incubated for another 20 minutes. Reactions were terminated by rapid vacuum filtration through GF/B unifilter plates using a Packard Harvester. Filters were washed three times with wash buffer (10 mM NaH2PO4, 10 mM Na2HPO4, pH 7.4), dried overnight and bound counts were measured in a Topcount Scintillation Counter in the presence of Microscint O. % Specific Binding was calculated and curves were plotted with help of in house software where pIC50 values were determined and Kb values were calculated.

human 5HT1A receptor [2] = biological target: T1, human 5HT1A receptor; assay: Radioligand binding to the 5-HT1A receptor, [3H]8-OH-DPAT; conditions: Example 77, membranes of HEK293 cells, [3H]8-OH-DPAT 0.5 nM, <5 = not active at up to 10 μM; for IC50: read-out: h5HT1A pIC50 (converted)
Protocol: Frozen membranes of HEK293 cells, stably-transfected with human 5-HT1A receptor (Perkin Elmer) were thawed on ice, briefly homogenised with an Ultra Turrax homogeniser and then suspended in Tris-HCl buffer (50 mM pH 7.7) supplemented with CaCl2 (4 mM) at an appropriate pre-determined protein concentration (5-10 μg protein per incubation mixture). Together with [^3H]8-OH-DPAT (0.5 nM final concentration; Perkin Elmer, USA), the membrane suspension was added to the test compound and incubated (30 min at 37° C.) in a total volume of 400 μl. Non-specific binding was determined in the presence of Spiroxatrine (1 μM). Free radioligand was separated from the radioligand-receptor complex by means of rapid vacuum filtration over GF/B unifilter plates with a Packard Harvester Filtration Unit. Unifilter plates were washed with ice cold Tris-HCl buffer (50 mM, pH 8.0) and then dried overnight. Bound counts were measured in a Topcount Scintillation Counter in the presence of Microscint O.

human 5-HTT = biological target: T2, human 5-HTT (Homo sapiens, UniProt P31645); assay: Radioligand binding to 5-HTT (serotonin transporter, SERT), [3H]Paroxetine; conditions: membranes of HEK293 cells, [3H]Paroxetine 0.5 nM, <5 = not active at up to 10 μM
T2 construct: purchased Perkin-Elmer, USA; host or cells: HEK293 cells, stably transfected (membranes)
Protocol: For 5-HTT binding, frozen membranes of HEK293 cells stably-transfected with human 5-HTT (Perkin-Elmer, USA) were thawed on ice, briefly homogenised and resuspended in Tris-HCl buffer (50 mM, pH 7.4) supplemented with NaCl (120 mM) and KCl (5 mM) at a concentration of 50 μg protein per incubation mixture. The membrane suspension was added to the test compound together with [^3H]Paroxetine (0.5 nM) in a total volume of 250 μl and incubated (60 min, 25° C.). Non-specific binding was determined in the presence of imipramine (1 μM). Filtration was done over pre-soaked GF/B unifilters (0.01% PEI) and washed as above with the Tris-HCl salt buffer used for the incubation. Specific binding was calculated and sigmoidal curves were plotted by an internally-developed software program based on S-plus software. Ki values were calculated using the Cheng-Prusoff equation.

[3] = Example 77, read-out: h5HTT pIC50 (converted)

T2 sequence (P31645 whole entry): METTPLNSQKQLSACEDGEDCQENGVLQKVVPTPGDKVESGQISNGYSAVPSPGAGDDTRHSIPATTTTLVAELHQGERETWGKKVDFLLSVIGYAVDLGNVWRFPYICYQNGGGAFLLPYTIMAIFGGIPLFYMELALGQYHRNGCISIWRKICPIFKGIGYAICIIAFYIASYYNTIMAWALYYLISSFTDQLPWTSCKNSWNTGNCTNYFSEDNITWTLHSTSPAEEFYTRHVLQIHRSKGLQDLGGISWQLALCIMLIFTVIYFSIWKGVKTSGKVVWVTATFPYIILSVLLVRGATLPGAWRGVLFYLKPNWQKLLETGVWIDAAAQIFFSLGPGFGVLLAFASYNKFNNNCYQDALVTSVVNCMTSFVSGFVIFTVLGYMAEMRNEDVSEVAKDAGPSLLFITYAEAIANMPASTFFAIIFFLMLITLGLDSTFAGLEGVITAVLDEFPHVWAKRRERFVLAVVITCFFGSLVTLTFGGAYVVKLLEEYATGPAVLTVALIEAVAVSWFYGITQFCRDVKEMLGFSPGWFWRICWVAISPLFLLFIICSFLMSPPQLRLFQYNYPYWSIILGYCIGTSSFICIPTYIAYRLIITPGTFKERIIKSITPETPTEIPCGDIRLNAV

IC50 (human 5HT1A receptor [1]) | IC50 (human 5HT1A receptor [2]) | IC50 (human 5-HTT; [3]) | h5HT1A Antagonist pIC50 (human 5HT1A receptor [1]) | h5HT1A pIC50 (human 5HT1A receptor [2]) | h5HTT pIC50 (human 5-HTT; Example 77) | Structure (SMILES) | IC50 (human 5-HTT; h5HTT pIC50, Example 77)
309 nM | – | – | – | – | – | Cc1cc2c(OC[C@@H](O)CN3C[C@@H]4C/C=C\C[C@H]3CN4c3cccc4ncccc34)cccc2[nH]1 [ID No. 136] | –
11000 nM | 282 nM | 28.2 nM | – | – | – | Cc1cc2c(OCCCN3C[C@@H]4C/C=C\C[C@H]3CN4c3ccc4ccccc4c3)cccc2[nH]1 [ID No. 138, 7-[3-(2-Methyl-1H-indol-4-yloxy)-propyl]-9-naphthalen-2-yl-7,9-diaza-bicyclo[4.2.2]dec-3-ene] | –
– | > 10000 nM | 85.1 nM | – | – | – | C#CCN1C[C@@H]2C/C=C\C[C@H]1CN2c1ccc2ccccc2c1 [compound 41] | –
– | – | – | <5 | 6.88 | 6.86 | Cc1cc2c(OC[C@H](O)CN3C[C@H]4C/C=C\C[C@@H]3CN4c3ccc4ccccc4c3)cccc2[nH]1 [compound 55] | –
> 10000 nM | 50.1 nM | 24 nM | – | – | – | COC(=O)c1cc2c(OC[C@@H](O)CN3C[C@@H]4C/C=C\C[C@H]3CN4c3ccc4ccccc4c3)cccc2[nH]1 [compound 126] | –
> 10000 nM | 363 nM | 39.8 nM | – | – | – | COC(=O)c1cc2c(OC[C@@H](O)CN3C[C@@H]4C/C=C\C[C@H]3CN4c3ccc4ccccc4c3)ccc(C)c2[nH]1 [compound 127] | –
> 10000 nM | 562 nM | 30.2 nM | – | – | – | COC(=O)c1cc2c(OC[C@@H](O)CN3C[C@@H]4C/C=C\C[C@H]3CN4c3ccc4ccccc4c3)ccc(Cl)c2[nH]1 [compound 128] | –
813 nM | 97.7 nM | 102 nM | – | – | – | Cc1cc2c(OC[C@@H](O)CN3C[C@@H]4C/C=C\C[C@H]3CN4c3ccc(Cl)c(Cl)c3)cccc2[nH]1 [compound 135] | –
– | > 10000 nM | 741 nM | – | – | – | COc1cc2c(cc1OC)C1=NO[C@@H](CN3C[C@@H]4C/C=C\C[C@H]3CN4c3ccc4ccccc4c3)C1CO2 (stereo partly drawn) [compound 140] | –
– | > 10000 nM | 724 nM | – | – | – | COc1cc2c(cc1OC)C1=NO[C@H](CN3C[C@@H]4C/C=C\C[C@H]3CN4c3ccc4ccccc4c3)C1CO2 (stereo partly drawn) [compound 141] | –
> 10000 nM | 9770 nM | 102 nM | – | – | – | C1=C\C[C@H]2CN(CCNc3ccccn3)[C@@H](C/1)CN2c1ccc2ccccc2c1 [compound 142] | –
> 10000 nM | 240 nM | 174 nM | – | – | – | COC(=O)c1cc2c(OC[C@@H](O)CN3C[C@@H]4C/C=C\C[C@H]3CN4c3ccc4ccccc4c3)cc(OC)cc2[nH]1 [compound 143] | –
> 10000 nM | 138 nM | 53.7 nM | – | – | – | Cc1cc2c(OC[C@@H](O)CN3C[C@@H]4C/C=C\C[C@H]3CN4c3ccc4ccccc4c3)c(F)ccc2[nH]1 [compound 148] | –
– | > 10000 nM | 1910 nM | – | – | – | C1=C\C[C@H]2CN(c3ccc4ccccc4c3)[C@@H](C/1)CN2C1Cc2ccccc2C1 [compound 150] | –
> 10000 nM | 933 nM | 57.5 nM | – | – | – | Cc1cc2c(OC[C@H](O)CN3CC4CC=CCC3CN4c3ccc4ccccc4c3)cccc2[nH]1 (stereo partly drawn) [compound 153] | –
> 10000 nM | 724 nM | 55 nM | – | – | – | Cc1cc2c(OC[C@@H](O)CN3C[C@@H]4C/C=C\C[C@H]3CN4c3ccc4ccccc4c3)c(C)ccc2[nH]1 [compound 154] | –
> 10000 nM and 6310 nM | 52.5 nM and 115 nM | 110 nM and 214 nM | – | – | – | Cc1cc2c(OC[C@@H](O)CN3CC4CC=CCC3CN4c3ccc4ccccc4c3)cccc2[nH]1 (stereo partly drawn) [compound 155] | –
> 10000 nM | > 10000 nM | 29.5 nM | – | – | – | Cn1ccc2c(OC[C@@H](O)CN3C[C@H]4C/C=C\C[C@@H]3CN4c3ccc4ccccc4c3)cccc21 [compound 156] | –
759 nM | – | – | – | – | – | Cc1cc2c(OC[C@@H](O)CN3C[C@@H]4C/C=C\C[C@H]3CN4c3cccc4ncccc34)cccc2[nH]1 [compound 157] | –
1150 nM | 126 nM | 251 nM | – | – | – | Cc1cc2c(OC[C@@H](O)CN3C[C@@H]4C/C=C\C[C@H]3CN4c3cnc4ccccc4c3)cccc2[nH]1 [compound 158] | –
47.9 nM | 10.7 nM | 759 nM | – | – | – | Cc1cc2c(OC[C@@H](O)CN3C[C@@H]4C/C=C\C[C@H]3CN4c3ccc4c(c3)OCCO4)cccc2[nH]1 [compound 159] | –
851 nM | 355 nM | 63.1 nM | – | – | – | O[C@H](COc1cccc2ncccc12)CN1C[C@@H]2C/C=C\C[C@H]1CN2c1ccc2ccccc2c1 [compound 160] | –

Structure (SMILES) | IC50 (human 5HT1A receptor [1]) | IC50 (human 5HT1A receptor [2]) | IC50 (human 5-HTT; [3]) | h5HT1A Antagonist pIC50 (human 5HT1A receptor [1]) | h5HT1A pIC50 (human 5HT1A receptor [2]) | h5HTT pIC50 (human 5-HTT; Example 77) | IC50 (human 5-HTT; h5HTT pIC50, Example 77)
C1=C\C[C@H]2CN[C@@H](C/1)CN2c1cccc2ccccc12 [compound 119] | – | > 10000 nM | – | – | – | – | 70.8 nM
C1=C\C[C@H]2CN[C@@H](C/1)CN2c1cccc2ncccc12 [compound 137] | > 10000 nM | 2340 nM | 676 nM | – | – | – | –
